For three molecules, IC50 and TGI results are on record in ChEMBL document CHEMBL3603755 (J Med Chem, 2015).

pIC50: −log10 of the molar value. Calls of active or inactive are those of the source. The calls are words filed in the database; no cut-off is given here. Where only a bound is given, the exact number is not on record here.

The subject of experiment [1] is MCF7.
Experiment [2] can be described thus: Inhibition of human SULU1.
Experiment [3] deals with CAPAN-1. The experiment is described as follows: Antitumor activity against human Capan1 cells xenografted in athymic nu/nu mouse assessed as tumor growth inhibition at 50 mg/kg administered for 5 days. It counts as functional, organism-based. A general note: A xenograft is tissue or cells of one species grown in another, often human tumour cells in immunodeficient mice.

By pIC50 is commonly meant −log10 of the IC50, conventionally taken in molar units. A lower pIC50 goes with a large IC50.

With `NC(=O)c1cccc2c1C(=O)N(C1CCN(C3CCC(F)(F)CC3)CC1)C2`, in experiment [1], the pIC50 was below 5.00.
For the molecule `NC(=O)c1cc(F)cc2c1C(=O)N(C1CCN(C3CCC(F)(F)CC3)CC1)C2`, in experiment [2], the pIC50 is below 5.00.
For `Cn1nnc2c(C(N)=O)ncn2c1=O`, in experiment [3], the TGI result was “inactive”.
